{"source": "patent US10688099B2", "about": "“Methods for modulating the amount of RNA transcripts” (PTC Therapeutics, Inc., priority 2013, dated 2020)", "tested_on": "SMN2 FL and SMN2 Δ7 mRNA", "test": "RT-qPCR analysis of SMN2 full length (FL) and Δ7 mRNAs in cultured cells", "type": "cell-based, human", "settings": "FIG. 1", "description": "Cells are plated at a certain density in an appropriate medium in 96-well flat-bottom plates. The plate is immediately swirled to ensure even distribution of the cells to ensure the formation of an even monolayer of cells and incubated for 6-24 hrs at 37° C. Cells are then treated with serially diluted test compound (e.g., 3.16-fold dilution factor, 0.5% final concentration of DMSO), in duplicate, for desired time under appropriate conditions (e.g., 37° C., 5% CO2, 100% relative humidity). After supernatant removal, cells are lysed (e.g., in Cells-To-Ct lysis buffer, Life Technologies). The levels of RNA of interest, and a reference RNA (e.g., GAPDH mRNA) are quantified (e.g., by using Taqman-based RT-qPCR) by assays designed to detect each mRNA of interest specifically. The forward and reverse primers are used at the appropriate concentration (e.g., 0.1-1 μM), as well as the probe (e.g., 0.1 to 0.3 μM). GAPDH primers are typically at 0.1 μM and the probe at 0.075 μM. RT-qPCR is carried out using an appropriate protocol. One example of such a protocol is the following temperatures for indicated time: Step 1: 48° C. (15 min); Step 2: 95° C. (10 min); Step 3: 95° C. (15 sec); Step 4: 60° C. (1 min); then, repeat Steps 3 and 4 for a total of 40 cycles. Fluorescence is recorded in each cycle at the end of the Step 4 incubation. […] The Ct values for each mRNA are converted to mRNA abundance using actual PCR efficiencies, and may be calculated essentially as described in Liu and Saint (Anal Biochem 302:52). […]\nGM03813 (Coriell Institute) and PNN 1-46 fibroblasts (Columbia University) derived from SMA Type I patients were plated at 5,000 cells/well in 200 μL Dulbecco's modified Eagle's medium (DMEM) with GlutaMAX and 10% fetal bovine serum (FBS) (Life Technologies, Inc.) in 96-well plates, and incubated for 6 hours in a cell culture incubator (37° C., 5% CO2, 100% relative humidity). […] The mRNA levels of SMN2 FL, SMN2 Δ7 and GAPDH were quantified using Taqman-based RT-qPCR and SMN2-specific primers and probes in Table 5 (purchased from Life Technologies, Inc.). […]", "key": {"[1]": {"settings": "SMA Type I patient fibroblasts, treatment for 24 hours"}}, "data": [{"smiles": "CCN1CCC(c2cc(C)c3nc(-c4cc5c(C)nc(C)cn5n4)cc(=O)n3c2)CC1", "note": "[Compound 702]", "values": [{"measurement": "splicing alteration of SMN2 transcripts", "setting": "SMA Type I fibroblast cells (PNN 1-46), 500 nM, 24 hours", "result": "complete splicing alteration of all SMN2 transcripts"}, {"measurement": "expression of exon 7 lacking (Δ7) mRNA", "setting": "[1]", "result": "dose dependent expression"}, {"measurement": "expression of full length (FL) mRNA", "setting": "[1]", "result": "dose dependent expression"}]}]}
